Source: patent US9770445B2, “Sulfoximine substituted 5-fluoro-N-(pyridin-2-yl)pyridin-2-amine derivatives and their use as CDK9 kinase inhibitors” (BAYER PHARMA AKTIENGESELLSCHAFT, priority 2013, dated 2017)

Key:
[1] = test system: A2780, human ovarian carcinoma cells; experiment: Proliferation assay, A2780 (crystal violet); type: cell-based; settings: 96 h, A2780, 4 days, read-out: Inhibition of A2780 cell proliferation
Method: Cultivated tumour cells (HeLa, human cervical tumour cells, ATCC CCL-2; NCI-H460, human non-small cell lung carcinoma cells, ATCC HTB-177; A2780, human ovarian carcinoma cells, ECACC #93112519; DU 145, hormone-independent human prostate carcinoma cells, ATCC HTB-81; HeLa-MaTu-ADR, multidrug-resistant human cervical carcinoma cells, EPO-GmbH Berlin; Caco-2, human colorectal carcinoma cells, ATCC HTB-37; B16F10, mouse melanoma cells, ATCC CRL-6475) were plated at a density of 5,000 cells/well (DU145, HeLa-MaTu-ADR), 3,000 cells/well (NCI-H460, HeLa), 2,500 cells/well (A2780), 1,500 cells/well (Caco-2), or 1,000 cells/well (B16F10) in a 96-well multititer plate in 200 μL of their respective growth medium supplemented 10% fetal calf serum. After 24 hours, the cells of one plate (zero-point plate) were stained with crystal violet (see below), while the medium of the other plates was replaced by fresh culture medium (200 μl), to which the test substances were added in various concentrations (0 μM, as well as in the range of 0.001-10 μM; the final concentration of the solvent dimethyl sulfoxide was 0.5%). The cells were incubated for 4 days in the presence of test substances. Cell proliferation was determined by staining the cells with crystal violet: the cells were fixed by adding 20 μl/measuring point of an 11% glutaric aldehyde solution for 15 minutes at room temperature. After three washing cycles of the fixed cells with water, the plates were dried at room temperature. The cells were stained by adding 100 μl/measuring point of a 0.1% crystal violet solution (pH 3.0). After three washing cycles of the stained cells with water, the plates were dried at room temperature. The dye was dissolved by adding 100 μl/measuring point of a 10% acetic acid solution. The extinction was determined by photometry at a wavelength of 595 nm. The change of cell number, in percent, was calculated by normalization of the measured values to the extinction values of the zero-point plate (=0%) and the extinction of the untreated (0 μm) cells (=100%). […]

[2] = test system: MOLM-13 human acute myeloid leukemia cells; experiment: Proliferation assay, MOLM-13 (Cell Titre-Glo); type: cell-based; settings: MOLM-13, 72-hour exposure, read-out: Inhibition of MOLM-13 cell proliferation
Method: Non-adherent MOLM-13 human acute myeloid leukemia cells (DSMZ ACC 554) were seeded at a density of 5,000 cells/well in a 96-well multititer plate in 100 μL of growth medium supplemented 10% fetal calf serum. After 24 hours, cell viability of one plate (zero-point plate) was determined with the Cell Titre-Glo Luminescent Cell Viability Assay (Promega), while 50 μL of test compound containing medium was added to the wells of the other plates (final concentrations in the range of 0.001-10 μM and DMSO controls; the final concentration of the solvent dimethyl sulfoxide was 0.5%). Cell viability was assessed after 72-hour exposure with the Cell Titre-Glo Luminescent Cell Viability Assay (Promega). IC50 values (inhibitory concentration at 50% of maximal effect) were determined by means of a 4 parameter fit on measurement data which were normalized to vehicle (DMSO) treated cells (=100%) and measurement readings taken immediately before compound exposure (=0%).

| Structure (SMILES) | IC50 [1] [nM] | IC50 [2] [nM] |
| --- | --- | --- |
| CS(=N)(=O)Cc1cc(F)nc(Nc2cc(-c3ccc(F)c4ccoc34)c(F)cn2)c1 (racemic) [Example 1, (rac)-5-Fluoro-4-(4-fluoro-1-benzofuran-7-yl)-N-{6-fluoro-4-[(S-methylsulfonimidoyl)methyl]pyridin-2-yl}pyridin-2-amine] | 11 | 16 |
| CS(=N)(=O)Cc1cc(Nc2cc(-c3ccc(F)c4ccoc34)c(F)cn2)nc(C(F)(F)F)c1 (racemic) [Example 3, (rac)-5-Fluoro-4-(4-fluoro-1-benzofuran-7-yl)-N-{4-[(S-methylsulfonimidoyl)methyl]-6-(trifluoromethyl)pyridin-2-yl}pyridin-2-amine] | 10 | 6 |
| CS(=N)(=O)Cc1ccnc(Nc2cc(-c3ccc(F)c4ccoc34)c(F)cn2)c1 (racemic) [Example 5, (rac)-5-Fluoro-4-(4-fluoro-1-benzofuran-7-yl)-N-{4-[(S-methylsulfonimidoyl)methyl]pyridin-2-yl}pyridin-2-amine] | 29 | 18 |
| Cc1cc(CS(C)(=N)=O)cc(Nc2cc(-c3ccc(F)c4ccoc34)c(F)cn2)n1 (racemic) [Example 7, (rac)-5-Fluoro-4-(4-fluoro-1-benzofuran-7-yl)-N-{6-methyl-4-[(S-methylsulfonimidoyl)-methyl]pyridin-2-yl}pyridin-2-amine] |  | 6.3 |
| CCc1cc(CS(C)(=N)=O)cc(Nc2cc(-c3ccc(F)c4ccoc34)c(F)cn2)n1 (racemic) [Example 8, (rac)-N-{6-Ethyl-4-[(S-methylsulfonimidoyl)methyl]pyridin-2-yl}-5-fluoro-4-(4-fluoro-1-benzofuran-7-yl)pyridin-2-amine] |  | 3.9 |
